This experiment addresses recombinant DYRK1A kinase (Homo sapiens (Human), UniProt Q13627). Nature of the experiment: DYRK1A kinase assay (Ser/Thr 18 peptide Z-lyte FRET). Format: biochemical. The settings on record: DYRK1A kinase activity, Z-lyte Ser/Thr 18 peptide, 15 μM ATP; method text calls the value IC50; read-out: EC50 (the source's name). The gist of the method:
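Kinase 0.25 μg/mL + ATP 15 μM + Ser/Thr 18 peptide 4 μM, 1 h RT with cpd (10 μM top, 1:3, 11 pts, n=2). Dev. reagent A 1 h RT. Ex 400, Em 455/520 ratio → % phos. → IC50, nonlinear fit.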

In the case of `COc1nc(N[C@H]2CCN(C)C[C@H]2F)nn2ccc(-c3ccn4nccc4c3)c12` [Compound 34, N-((3R,4S)-3-Fluoro-1-methylpiperidin-4-yl)-4-methoxy-5-(pyrazolo[1,5-a]pyridin-5-yl)pyrrolo[2,1-f][1,2,4]triazin-2-amine], the IC50 worked out at 6.2 nM. `COCC[C@@H](C)Nc1nc(OC)c2c(-c3cnc4nccn4c3)ccn2n1` [Compound 926, (R)-5-(Imidazo[1,2-a]pyrimidin-6-yl)-4-methoxy-N-(4-methoxybutan-2-yl)pyrrolo[2,1-f][1,2,4]triazin-2-amine]: the IC50 is 5.6 nM. As for `COc1nc(N[C@H]2CCN(CCO)C[C@H]2F)nn2ccc(-c3cc(F)c4nc(C)n(C(C)C)c4c3)c12` [Compound 542, 2-((3R,4S)-3-Fluoro-4-((5-(4-fluoro-1-isopropyl-2-methyl-1H-benzo[d]imidazol-6-yl)-4-methoxypyrrolo[2,1-f][1,2,4]triazin-2-yl)amino)piperidin-1-yl)ethan-1-ol], the figure is 1.1 nM; as for `COc1nc(N[C@H]2C[C@H](C(C)(C)O)C2)nn2ccc(-c3ccc4ncccc4c3)c12` [Compound 287, 2-(trans-3-((4-methoxy-5-(quinolin-6-yl)pyrrolo[2,1-f][1,2,4]triazin-2-yl)amino)cyclobutyl)propan-2-ol], 2.2 nM. To `COc1nc(N[C@@H]2CCN(C(C)=O)CC2(F)F)nn2ccc(-c3ccc4ncccc4c3)c12` [Compound 1048, (R)-1-(3,3-Difluoro-4-((4-methoxy-5-(quinolin-6-yl)pyrrolo[2,1-f][1,2,4]triazin-2-yl)amino)piperidin-1-yl)ethan-1-one] belongs 1.3 nM; to `COc1nc(N[C@H]2C[C@@](C)(NC(C)=O)C2)nn2cc(F)c(-c3ccc4ncccc4c3)c12` [Compound 1052, N-(cis-3-((6-Fluoro-4-methoxy-5-(quinolin-6-yl)pyrrolo[2,1-f][1,2,4]triazin-2-yl)amino)-1-methylcyclobutyl)acetamide], 4.5 nM; to `COc1nc(N[C@H]2CC[C@@](C)(O)CC2)nn2ccc(-c3ccc4nnn(CC(F)F)c4c3)c12` [Compound 724, (1s,4s)-4-((5-(1-(2,2-Difluoroethyl)-1H-benzo[d][1,2,3]triazol-6-yl)-4-methoxypyrrolo[2,1-f][1,2,4]triazin-2-yl)amino)-1-methylcyclohexan-1-ol], 1.1 nM. As for `COc1nc(N[C@@H]2CCN(C3COC3)C[C@@H]2F)nn2ccc(-c3cnc4nccn4c3)c12` [Compound 269, N-((3S,4R)-3-Fluoro-1-(oxetan-3-yl)piperidin-4-yl)-5-(imidazo[1,2-a]pyrimidin-6-yl)-4-methoxypyrrolo[2,1-f][1,2,4]triazin-2-amine], the figure is 2.3 nM. Regarding `COc1nc(N[C@@H]2CCN(C)C[C@@H]2F)nn2ccc(-c3ccc4nccn4c3)c12` [Compound 67, N-((3S,4R)-3-Fluoro-1-methylpiperidin-4-yl)-5-(imidazo[1,2-a]pyridin-6-yl)-4-methoxypyrrolo[2,1-f][1,2,4]triazin-2-amine], the IC50 worked out at 5.6 nM. As for `COc1nc(N[C@H]2CC[C@@](O)(C(F)(F)F)CC2)nn2ccc(-c3ccc4nccnc4c3)c12` [Compound 349, trans-4-((4-Methoxy-5-(quinoxalin-6-yl)pyrrolo[2,1-f][1,2,4]triazin-2-yl)amino)-1-(trifluoromethyl)cyclohexan-1-ol], the figure is 6.6 nM; as for `COc1nc(NC2CCC(C)(C#N)CC2)nn2ccc(-c3cnc4nccn4c3)c12` (stereo not shown) [Compound 948, 4-((5-(Imidazo[1,2-a]pyrimidin-6-yl)-4-methoxypyrrolo[2,1-f][1,2,4]triazin-2-yl)amino)-1-methylcyclohexane-1-carbonitrile], 0.4 nM; as for `COc1nc(NC2CCC3(CC2)CN(C(C)=O)C3)nn2ccc(-c3ccc4nnn(C)c4c3)c12` [Compound 229, 1-(7-((4-Methoxy-5-(1-methyl-1H-benzo[d][1,2,3]triazol-6-yl)pyrrolo[2,1-f][1,2,4]triazin-2-yl)amino)-2-azaspiro[3.5]nonan-2-yl)ethan-1-one], 1.9 nM. Take `COCCNC(=O)[C@]1(C)C[C@@H](Nc2nc(OC)c3c(-c4ccc5nnn(C)c5c4)ccn3n2)C1` [Compound 214, trans-3-((4-Methoxy-5-(1-methyl-1H-benzo[d][1,2,3]triazol-6-yl)pyrrolo[2,1-f][1,2,4]triazin-2-yl)amino)-N-(2-methoxyethyl)-1-methylcyclobutane-1-carboxamide]: the IC50 was 2.2 nM.

Take `COc1nc(N[C@H]2CC[C@](C)(OC)CC2)nn2ccc(-c3cnc4nccn4c3)c12` [Compound 954, 5-(Imidazo[1,2-a]pyrimidin-6-yl)-4-methoxy-N-((1r,4r)-4-methoxy-4-methylcyclohexyl)pyrrolo[2,1-f][1,2,4]triazin-2-amine]: the IC50 came to 0.9 nM. As for `COc1nc(N[C@H]2C[C@](C)(C(=O)N(C)C)C2)nn2ccc(-c3ccc4nc(C)n(CC(F)F)c4c3)c12` [Compound 109, trans-3-((5-(1-(2,2-Difluoroethyl)-2-methyl-1H-benzo[d]imidazol-6-yl)-4-methoxypyrrolo[2,1-f][1,2,4]triazin-2-yl)amino)-N,N,1-trimethylcyclobutane-1-carboxamide], the figure is 1 nM; as for `COc1nc(N[C@H]2CCN(C)C[C@H]2F)nn2ccc(-c3ccc4nnn(CC(F)F)c4c3)c12` [Compound 754, 5-(1-(2,2-Difluoroethyl)-1H-benzo[d][1,2,3]triazol-6-yl)-N-((3R,4S)-3-fluoro-1-methylpiperidin-4-yl)-4-methoxypyrrolo[2,1-f][1,2,4]triazin-2-amine], 1.7 nM. As for `COc1nc(NC2CCC3(CC2)COC3)nn2ccc(-c3ccc4nncn4c3)c12` [Compound 188, 5-([1,2,4]Triazolo[4,3-a]pyridin-6-yl)-4-methoxy-N-(2-oxaspiro[3.5]nonan-7-yl)pyrrolo[2,1-f][1,2,4]triazin-2-amine], the figure is 50.3 nM; as for `COc1nc(N[C@H]2C[C@@](C)(NC(C)=O)C2)nn2ccc(-c3ccc4nnn(C)c4c3)c12` [Compound 205, N-(cis-3-((4-Methoxy-5-(1-methyl-1H-benzo[d][1,2,3]triazol-6-yl)pyrrolo[2,1-f][1,2,4]triazin-2-yl)amino)-1-methylcyclobutyl)acetamide], 4.3 nM; as for `COc1nc(N[C@H]2CC[C@@H](OCCO)CC2)nn2ccc(-c3ccc4nccn4c3)c12` [Compound 49, 2-((cis-4-((5-(Imidazo[1,2-a]pyridin-6-yl)-4-methoxypyrrolo[2,1-f][1,2,4]triazin-2-yl)amino)cyclohexyl)oxy)ethan-1-ol], 2.6 nM. To `COc1nc(N[C@H]2CN(C3COC3)C[C@H]2F)nn2ccc(-c3ccc4nccnc4c3)c12` [Compound 356, N-((3S,4R)-4-Fluoro-1-(oxetan-3-yl)pyrrolidin-3-yl)-4-methoxy-5-(quinoxalin-6-yl)pyrrolo[2,1-f][1,2,4]triazin-2-amine] belongs 8.8 nM; to `COc1nc(N[C@H]2C[C@@](C)(NC(C)=O)C2)nn2ccc(-c3cc(F)c4nc(C)n(CC(F)F)c4c3)c12` [Compound 148, N-((1s,3s)-3-((5-(1-(2,2-Difluoroethyl)-4-fluoro-2-methyl-1H-benzo[d]imidazol-6-yl)-4-methoxypyrrolo[2,1-f][1,2,4]triazin-2-yl)amino)-1-methylcyclobutyl)acetamide], 1.8 nM; to `COc1nc(N[C@H]2CN(C)C[C@H]2F)nn2ccc(-c3ccc4nccnc4c3)c12` [Compound 351, N-((3S,4R)-4-Fluoro-1-methylpyrrolidin-3-yl)-4-methoxy-5-(quinoxalin-6-yl)pyrrolo[2,1-f][1,2,4]triazin-2-amine], 8.1 nM. On to `COc1nc(N[C@H]2C[C@](C)(O)C2)nn2ccc(-c3ccc4nccnc4c3)c12` [Compound 330, trans-3-((4-Methoxy-5-(quinoxalin-6-yl)pyrrolo[2,1-f][1,2,4]triazin-2-yl)amino)-1-methylcyclobutan-1-ol], for which the IC50 came out at 2.3 nM. Regarding `COc1nc(NC[C@@H]2CNCCO2)nn2ccc(-c3ccc4nnn(C)c4c3)c12` [Compound 623, (S)-4-Methoxy-5-(1-methyl-1H-benzo[d][1,2,3]triazol-6-yl)-N-(morpholin-2-ylmethyl)pyrrolo[2,1-f][1,2,4]triazin-2-amine], the IC50 came out at 5.1 nM.

Consider `COc1nc(N[C@H]2CCN(C)C[C@H]2F)nn2ccc(-c3ccc4nccnc4c3)c12` [Compound 368, N-((3R,4S)-3-Fluoro-1-methylpiperidin-4-yl)-4-methoxy-5-(quinoxalin-6-yl)pyrrolo[2,1-f][1,2,4]triazin-2-amine], for which the IC50 came to 4 nM. To `COc1nc(N[C@@H]2C[C@@H]3CN(C(C)=O)C[C@@H]3C2)nn2ccc(-c3ccc4nnn(C)c4c3)c12` [Compound 228, 1-((3aR,5r,6aS)-5-((4-Methoxy-5-(1-methyl-1H-benzo[d][1,2,3]triazol-6-yl)pyrrolo[2,1-f][1,2,4]triazin-2-yl)amino)hexahydrocyclopenta[c]pyrrol-2(1H)-yl)ethan-1-one] belongs 3.4 nM; to `COc1nc(N[C@H]2CCN(C(C)=O)C[C@H]2F)nn2ccc(-c3ccc4nnn(CC(F)(F)F)c4c3)c12` [Compound 916, 1-((3R,4S)-3-Fluoro-4-((4-methoxy-5-(1-(2,2,2-trifluoroethyl)-1H-benzo[d][1,2,3]triazol-6-yl)pyrrolo [2,1-f][1,2,4]triazin-2-yl)amino)piperidin-1-yl)ethan-1-one], 1.4 nM; to `COc1nc(N[C@H]2CCN(C)C[C@H]2F)nn2ccc(-c3cnc4nccn4c3)c12` [Compound 268, N-((3R,4S)-3-Fluoro-1-methylpiperidin-4-yl)-5-(imidazo[1,2-a]pyrimidin-6-yl)-4-methoxypyrrolo[2,1-f][1,2,4]triazin-2-amine], 5 nM.

For the origin of these results see patent US20240002391A1, “4-ALKOXYPYRROLO[2,1-F][1,2,4]TRIAZINES AND PREPARATION AND USES THEREOF” (BioSplice Therapeutics, Inc., priority 2022, published 2024).
